The target of one experiment is open BK channels. As to conditions: read-out: blocking affinity / Kd(0) for block of open BK channels; cited from earlier work.
In experiment [1] the test system is BK α subunits coexpressed with construct D20A. Briefly: Effect of pore blockers on β3a-mediated tail currents. The class given is cell-based, mSlo1 (mouse) with human β3a N-terminus on human β2. As to conditions: 10 μM Ca^2+; TBA 2 or 10 mM; bbTBA 200 and 400 μM.
The test system of a further experiment is Shaker K^+ channels. As to conditions: cited from earlier work.

“And” between values parts separate entries of the source, which are not always exact repeats. Equal values may be shown once.

In the case of `CCCC[N+](CCCC)(CCCC)CCCC` [TBA, tetrabutylammonium], at open BK channels, the Kd is 900 µM and ~900 µM. Further, in experiment [1], the “effect on β3a-mediated tail currents” value was “both peak tail current and tail current time constant were reduced”.
`CC[N+](CC)(CC)CC` [TEA, tetraethylammonium]: the “effect on inactivation onset” value in the experiment on Shaker K^+ channels is “slow inactivation onset”.

The values above are taken from PMC3348258 (Nature, 2012).
